Results from patent US20250381198A1 (Melt Pharmaceuticals, Inc., priority 2024, published 2025).

How the values were obtained:
[1] = test system: subjects undergoing cataract extraction with lens replacement (CELR); test: Phase 2: subjects completing the surgery (and without interruption); type: in vivo, human; details: Visit 2 (Day 1); full analysis set
Procedure: (§1) The number of subjects achieving analgesia response (observed) in the full analysis set was determined. Success in analgesia response was defined as NPRS<4 at the available at the available four intraoperative timepoints and a failure otherwise (e.g., any interoperative pain rescue was assumed to be a failure. Results are provided in TABLE 25. The number of subjects completing the surgery is provided in TABLE 26, and the number of subjects completing the surgery without interruption is provided in TABLE 27. For this measure, subjects completing the surgery without interruption (other than rescue medication) due to pain or anxiety were considered successes. The number of subjects requiring rescue sedative medication and those requiring analgesic medication are provided in TABLES 28 and 29, respectively. For all TABLES 25-29, p-Values between pairs of treatments were calculated and are provided.

[2] = test system: subjects undergoing cataract extraction with lens replacement (CELR); test: Phase 2: subjects requiring rescue sedative medication; type: in vivo, human; details: Visit 2 (Day 1); full analysis set
Procedure: as §1

[3] = test system: subjects undergoing cataract extraction with lens replacement (CELR); test: Phase 2: subjects requiring rescue analgesic medication; type: in vivo, human; details: Visit 2 (Day 1); full analysis set
Procedure: as §1

[4] = test system: subjects undergoing cataract extraction with lens replacement (CELR); test: Phase 2: subjects wanting study drug again for a second surgery (11-point Likert scale); type: in vivo, human; details: for Want Study Drug Again, Mean / Want Study Drug Again, Median: 11-point Likert scale of 0 (not likely at all) to 10 (extremely likely), full analysis set
Text: Post-operation, subjects were asked whether they would want the study drug again for a second surgery using an 11-point Likert scale of 0 (not likely at all) to 10 (extremely likely).

[5] = test system: subjects undergoing cataract extraction with lens replacement (CELR); test: Phase 2: mean intraoperative analgesia by the numeric pain rating scale; details: for Intraoperative Numeric Pain Rating Scale, Mean / Intraoperative Numeric Pain Rating Scale, Median: full analysis set
Procedure: Mean intraoperative analgesia by the numeric pain rating scale (Min=0; Max=9) was assayed for each subject in the full analysis set at intraoperative timepoints: insertion of the speculum; corneal incision; insertion of phacoemulsion probe; insertion of the synthetic replacement lens. An average of the available timepoints was also calculated.

[6] = 11-point Likert scale, unpaired t-test
[7] = Average of Available Timepoints, adjusted for site (carry forward)
[8] = Average of Available Timepoints, adjusted for site (carry forward), repeated measures model with covariates for study center
[9] = Average of Available Timepoints, carry forward
[10] = Average of Available Timepoints, carry forward, repeated measures model
[11] = Average of Available Timepoints, observed
[12] = Average of Available Timepoints, observed, repeated measures model
[13] = Corneal incision, adjusted for site (carry forward)
[14] = Corneal incision, carry forward
[15] = Insertion of the phacoemulsion probe, adjusted for site (carry forward)
[16] = Insertion of the phacoemulsion probe, carry forward
[17] = Insertion of the phacoemulsion probe, observed
[18] = Insertion of the speculum, adjusted for site (carry forward)
[19] = Insertion of the speculum, carry forward
[20] = Insertion of the speculum, observed
[21] = Insertion of the synthetic replacement lens, adjusted for site (carry forward)
[22] = Insertion of the synthetic replacement lens, carry forward
[23] = Insertion of the synthetic replacement lens, observed
[24] = adjusted for site (carry forward), repeated measures model with covariates for study center
[25] = carry forward, repeated measures model
[26] = observed, repeated measures model

Cc1ncc2n1-c1ccc(Cl)cc1C(c1ccccc1F)=NC2 [Midazolam 3 mg]
Subjects Completing the Surgery without Interruption, No, % [1]: (0) %
Subjects Completing the Surgery without Interruption, Yes, % [1]: (100.0) %
Subjects Requiring Rescue Sedative Medication, Intraoperatively, % [2]: (8.6) %
Subjects Requiring Rescue Sedative Medication, No, % [2]: (65.4) %
Subjects Requiring Rescue Sedative Medication, Pre-operatively, % [2]: (25.9) %
Subjects Requiring Rescue Sedative Medication, Yes, % [2]: (34.6) %
Subjects Requiring Rescue Analgesic Medication, No, % [3]: (56.8) %
Subjects Requiring Rescue Analgesic Medication, Yes, % [3]: (43.2) %
Want Study Drug Again, Mean [4]: 8.4
Want Study Drug Again, Median [4]: 10.0
Want Study Drug Again, Mean Difference Versus Ketamine [4, 6]: 0.80
Want Study Drug Again, Mean Difference Versus Placebo [4, 6]: 0.75
Intraoperative Numeric Pain Rating Scale, Mean [5, 7]: 2.37
Intraoperative Numeric Pain Rating Scale, Median [5, 7]: 2.00
Intraoperative Numeric Pain Rating Scale, LS Mean [5, 8]: 2.12
Intraoperative Numeric Pain Rating Scale, Mean [5, 9]: 2.37
Intraoperative Numeric Pain Rating Scale, Median [5, 9]: 2.00
Intraoperative Numeric Pain Rating Scale, LS Mean [5, 10]: 2.37
Intraoperative Numeric Pain Rating Scale, Mean [5, 11]: 2.18
Intraoperative Numeric Pain Rating Scale, Median [5, 11]: 2.00
Intraoperative Numeric Pain Rating Scale, LS Mean [5, 12]: 2.46
Intraoperative Numeric Pain Rating Scale, Mean [5, 13]: 1.8
Intraoperative Numeric Pain Rating Scale, Median [5, 13]: 1.0
Intraoperative Numeric Pain Rating Scale, Mean [5, 14]: 1.8
Intraoperative Numeric Pain Rating Scale, Median [5, 14]: 1.0
Intraoperative Numeric Pain Rating Scale, Mean ([5]; Corneal incision, observed): 1.8
Intraoperative Numeric Pain Rating Scale, Median ([5]; Corneal incision, observed): 1.0
Intraoperative Numeric Pain Rating Scale, Mean [5, 15]: 2.9
Intraoperative Numeric Pain Rating Scale, Median [5, 15]: 3.0
Intraoperative Numeric Pain Rating Scale, Mean [5, 16]: 2.9
Intraoperative Numeric Pain Rating Scale, Median [5, 16]: 3.0
Intraoperative Numeric Pain Rating Scale, Mean [5, 17]: 2.5
Intraoperative Numeric Pain Rating Scale, Median [5, 17]: 2.0
Intraoperative Numeric Pain Rating Scale, Mean [5, 18]: 1.1
Intraoperative Numeric Pain Rating Scale, Median [5, 18]: 0.0
Intraoperative Numeric Pain Rating Scale, Mean [5, 19]: 1.1
Intraoperative Numeric Pain Rating Scale, Median [5, 19]: 0.0
Intraoperative Numeric Pain Rating Scale, Mean [5, 20]: 1.1
Intraoperative Numeric Pain Rating Scale, Median [5, 20]: 0.0
Intraoperative Numeric Pain Rating Scale, Mean [5, 21]: 3.6
Intraoperative Numeric Pain Rating Scale, Median [5, 21]: 4.0
Intraoperative Numeric Pain Rating Scale, Mean [5, 22]: 3.6
Intraoperative Numeric Pain Rating Scale, Median [5, 22]: 4.0
Intraoperative Numeric Pain Rating Scale, Mean [5, 23]: 2.9
Intraoperative Numeric Pain Rating Scale, Median [5, 23]: 3.0
Numeric Pain Rating Scale, LS Mean Difference Versus Ketamine [5, 24]: 0.22
Numeric Pain Rating Scale, LS Mean Difference Versus Placebo [5, 24]: −0.08
Numeric Pain Rating Scale, LS Mean Difference Versus Ketamine [5, 25]: 0.20
Numeric Pain Rating Scale, LS Mean Difference Versus Placebo [5, 25]: −0.12
Numeric Pain Rating Scale, LS Mean Difference Versus Ketamine [5, 26]: 0.24
Numeric Pain Rating Scale, LS Mean Difference Versus Placebo [5, 26]: −0.01

CNC1(c2ccccc2Cl)CCCCC1=O (centres unmarked) [Ketamine 50 mg]
Subjects Completing the Surgery without Interruption, No, % [1]: (6.3) %
Subjects Completing the Surgery without Interruption, Yes, % [1]: (93.7) %
Subjects Requiring Rescue Sedative Medication, Intraoperatively, % [2]: (6.3) %
Subjects Requiring Rescue Sedative Medication, No, % [2]: (63.3) %
Subjects Requiring Rescue Sedative Medication, Pre-operatively, % [2]: (30.4) %
Subjects Requiring Rescue Sedative Medication, Yes, % [2]: (36.7) %
Subjects Requiring Rescue Analgesic Medication, No, % [3]: (59.5) %
Subjects Requiring Rescue Analgesic Medication, Yes, % [3]: (40.5) %
Want Study Drug Again, Mean [4]: 7.6
Want Study Drug Again, Median [4]: 10.0
Want Study Drug Again, Mean Difference Versus Placebo [4, 6]: −0.05
Intraoperative Numeric Pain Rating Scale, Mean [5, 7]: 2.16
Intraoperative Numeric Pain Rating Scale, Median [5, 7]: 1.75
Intraoperative Numeric Pain Rating Scale, LS Mean [5, 8]: 1.89
Intraoperative Numeric Pain Rating Scale, Mean [5, 9]: 2.16
Intraoperative Numeric Pain Rating Scale, Median [5, 9]: 1.75
Intraoperative Numeric Pain Rating Scale, LS Mean [5, 10]: 2.16
Intraoperative Numeric Pain Rating Scale, Mean [5, 11]: 2.00
Intraoperative Numeric Pain Rating Scale, Median [5, 11]: 1.75
Intraoperative Numeric Pain Rating Scale, LS Mean [5, 12]: 2.22
Intraoperative Numeric Pain Rating Scale, Mean [5, 13]: 1.8
Intraoperative Numeric Pain Rating Scale, Median [5, 13]: 1.0
Intraoperative Numeric Pain Rating Scale, Mean [5, 14]: 1.8
Intraoperative Numeric Pain Rating Scale, Median [5, 14]: 1.0
Intraoperative Numeric Pain Rating Scale, Mean ([5]; Corneal incision, observed): 1.7
Intraoperative Numeric Pain Rating Scale, Median ([5]; Corneal incision, observed): 1.0
Intraoperative Numeric Pain Rating Scale, Mean [5, 15]: 2.5
Intraoperative Numeric Pain Rating Scale, Median [5, 15]: 2.0
Intraoperative Numeric Pain Rating Scale, Mean [5, 16]: 2.5
Intraoperative Numeric Pain Rating Scale, Median [5, 16]: 2.0
Intraoperative Numeric Pain Rating Scale, Mean [5, 17]: 2.1
Intraoperative Numeric Pain Rating Scale, Median [5, 17]: 2.0
Intraoperative Numeric Pain Rating Scale, Mean [5, 18]: 1.3.
Intraoperative Numeric Pain Rating Scale, Median [5, 18]: 1.0
Intraoperative Numeric Pain Rating Scale, Mean [5, 19]: 1.1
Intraoperative Numeric Pain Rating Scale, Median [5, 19]: 1.0
Intraoperative Numeric Pain Rating Scale, Mean [5, 20]: 1.1
Intraoperative Numeric Pain Rating Scale, Median [5, 20]: 1.0
Intraoperative Numeric Pain Rating Scale, Mean [5, 21]: 3.3
Intraoperative Numeric Pain Rating Scale, Median [5, 21]: 3.0
Intraoperative Numeric Pain Rating Scale, Mean [5, 22]: 3.3
Intraoperative Numeric Pain Rating Scale, Median [5, 22]: 3.0
Intraoperative Numeric Pain Rating Scale, Mean [5, 23]: 2.5
Intraoperative Numeric Pain Rating Scale, Median [5, 23]: 2.0
Numeric Pain Rating Scale, LS Mean Difference Versus Placebo [5, 24]: −0.30
Numeric Pain Rating Scale, LS Mean Difference Versus Placebo [5, 25]: −0.32
Numeric Pain Rating Scale, LS Mean Difference Versus Placebo [5, 26]: −0.26
